Test results as given in patent publication US20100093756A1, “HETEROARYL SUBSTITUTED THIENO[2,3-d]PYRIMIDINE AND THEIR USE AS ADENOSINE A2a RECEPTOR ANTAGONISTS” (priority 2008, published 2010).
Structures can show the parent of a compound that is named as a salt.

Key:
[1] = molecular target: T1, human adenosine A2a receptor (Homo sapiens, UniProt P29274); experiment: Adenosine A2a Receptor Functional Assay (A2AGAL2); assay type: cell-based; settings: CHO-K1 cells, cAMP inducible beta-galactosidase reporter, 15 nM NECA agonist challenge
T1 construct: expressed in transfected cells; host or cells: CHO-K1
T1 sequence (P29274 whole entry): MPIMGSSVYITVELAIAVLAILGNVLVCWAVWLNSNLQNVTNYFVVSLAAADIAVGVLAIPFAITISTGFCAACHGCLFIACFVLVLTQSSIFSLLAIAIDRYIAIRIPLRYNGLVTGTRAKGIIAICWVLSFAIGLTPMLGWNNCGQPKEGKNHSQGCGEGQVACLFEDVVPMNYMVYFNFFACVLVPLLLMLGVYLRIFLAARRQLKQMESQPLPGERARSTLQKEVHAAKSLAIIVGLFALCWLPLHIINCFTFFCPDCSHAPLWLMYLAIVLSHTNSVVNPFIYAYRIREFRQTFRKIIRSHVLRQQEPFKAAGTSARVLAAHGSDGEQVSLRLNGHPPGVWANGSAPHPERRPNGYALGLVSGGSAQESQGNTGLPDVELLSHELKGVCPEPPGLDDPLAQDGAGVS
Description: Adenosine A2a Receptor Functional Assay (A2AGAL2)
To initiate the functional assay, cryopreserved CHO-K1 cells overexpressing the human adenosine A2a receptor and containing a cAMP inducible beta-galactosidase reporter gene were thawed, centrifuged, DMSO containing media removed, and then seeded with fresh culture media into clear 384-well tissue culture treated plates (BD #353961) at a concentration of 10K cells/well. Prior to assay, these plates were cultured for two days at 37° C., 5% CO2, 90% Rh. On the day of the functional assay, culture media was removed and replaced with 45 uL assay medium (Hams/F-12 Modified (Mediatech #10-080CV) supplemented w/0.1% BSA). Test compounds were diluted and 11 point curves created at a 1000× concentration in 100% DMSO. Immediately after addition of assay media to the cell plates, 50 nL of the appropriate test compound antagonist or agonist control curves were added to cell plates using a Cartesian Hummingbird. Compound curves were allowed to incubate at room temperature on cell plates for approximately 15 minutes before addition of a 15 nM NECA (Sigma E2387) agonist challenge (5 uL volume). A control curve of NECA, a DMSO/Media control, and a single dose of Forskolin (Sigma F3917) were also included on each plate. After additions, cell plates were allowed to incubate at 37° C., 5% CO2, 90% Rh for 5.5-6 hours. After incubation, media was removed, and cell plates were washed 1×50 uL with DPBS w/o Ca & Mg (Mediatech 21-031-CV). Into dry wells, 20 uL of 1× Reporter Lysis Buffer (Promega E3971 (diluted in dH2O from 5× stock)) was added to each well and plates frozen at −20° C. overnight. For β-galactosidase enzyme colorimetric assay, plates were thawed out at room temperature and 20μL 2× assay buffer (Promega) was added to each well. Color was allowed to develop at 37° C., 5% CO2, 90% Rh for 1-1.5 h or until reasonable signal appeared. The calorimetric reaction was stopped with the addition of 60 μL/well 1M sodium carbonate. Plates were counted at 405 nm on a SpectraMax Microplate Reader (Molecular Devices). Data was analyzed in Microsoft Excel and IC/EC50 curves were fit using a standardized macro.

[2] = molecular target: T2, human adenosine A1 receptor (Homo sapiens, UniProt P30542); experiment: Adenosine A1 Receptor Functional Assay (A1GAL2); assay type: cell-based; settings: CHO-K1 cells, cAMP inducible beta-galactosidase reporter, 4 nM r-PIA/1 uM Forskolin agonist challenge
T2 construct: expressed in transfected cells; host or cells: CHO-K1
T2 sequence (P30542 1-326): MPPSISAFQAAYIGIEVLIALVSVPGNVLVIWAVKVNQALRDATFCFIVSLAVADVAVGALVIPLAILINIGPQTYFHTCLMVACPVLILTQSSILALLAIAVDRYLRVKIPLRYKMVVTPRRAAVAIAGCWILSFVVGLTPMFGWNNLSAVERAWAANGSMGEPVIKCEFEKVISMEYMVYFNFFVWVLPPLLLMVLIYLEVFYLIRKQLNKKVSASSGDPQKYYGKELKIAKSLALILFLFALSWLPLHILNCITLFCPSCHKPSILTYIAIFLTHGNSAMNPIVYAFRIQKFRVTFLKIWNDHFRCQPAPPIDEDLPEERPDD
Description: Adenosine A1 Receptor Functional Assay (A1GAL2)
To initiate the functional assay, cryopreserved CHO-K1 cells overexpressing the human adenosine A1 receptor and containing a cAMP inducible beta-galactosidase reporter gene were thawed, centrifuged, DMSO containing media removed, and then seeded with fresh culture media into clear 384-well tissue culture treated plates (BD #353961) at a concentration of 10K cells/well. Prior to assay, these plates were cultured for two days at 37° C., 5% CO2, 90% Rh. On the day of the functional assay, culture media was removed and replaced with 45 uL assay medium (Hams/F-12 Modified (Mediatech #10-080CV) supplemented w/0.1% BSA). Test compounds were diluted and 11 point curves created at a 1000× concentration in 100% DMSO. Immediately after addition of assay media to the cell plates, 50 nL of the appropriate test compound antagonist or agonist control curves were added to cell plates using a Cartesian Hummingbird. Compound curves were allowed to incubate at room temperature on cell plates for approximately 15 minutes before addition of a 4 nM r-PIA (Sigma P4532)/1 uM Forskolin (Sigma F3917) agonist challenge (5 uL volume). A control curve of r-PIA in 1 uM Forskolin, a DMSO/Media control, and a single dose of Forskolin were also included on each plate. After additions, cell plates were allowed to incubate at 37° C., 5% CO2, 90% Rh for 5.5-6 hours. After incubation, media was removed, and cell plates were washed 1×50 uL with DPBS w/o Ca & Mg (Mediatech 21-031-CV). Into dry wells, 20 uL of 1× Reporter Lysis Buffer (Promega E3971 (diluted in dH2O from 5× stock)) was added to each well and plates frozen at −20° C. overnight. For β-galactosidase enzyme colorimetric assay, plates were thawed out at room temperature and 20 μL 2× assay buffer (Promega) was added to each well. Color was allowed to develop at 37° C., 5% CO2, 90% Rh for 1-1.5 h or until reasonable signal appeared. The colorimetric reaction was stopped with the addition of 60 μL/well 1M sodium carbonate. Plates were counted at 405 nm on a SpectraMax Microplate Reader (Molecular Devices). Data was analyzed in Microsoft Excel and IC/EC50 curves were fit using a standardized macro.

[3] = molecular target: T3, human A2a adenosine receptor (Homo sapiens, UniProt P29274); experiment: Ligand Binding Assay for Adenosine A2a Receptor (A2A-B); settings: HEK293 cell plasma membrane, radioligand [3H]CGS21680
T3 construct: purchased PerkinElmer RB-HA2a; host or cells: HEK293 plasma membrane
T3 sequence (P29274 whole entry): as the sequence (P29274 whole entry) above
Description: Ligand Binding Assay for Adenosine A2a Receptor (A2A-B)
Ligand binding assay of adenosine A2a receptor was performed using plasma membrane of HEK293 cells containing human A2a adenosine receptor (PerkinElmer, RB-HA2a) and radioligand [^3H]CGS21680 (PerkinElmer, NET1021). Assay was set up in 96-well polypropylene plate in total volume of 200 μL by sequentially adding 20 μL 1:20 diluted membrane, 130 μL assay buffer (50 mM Tris.HCl, pH7.4 10 mM MgCl2, 1 mM EDTA) containing [^3H] CGS21680, 50 μL diluted compound (4×) or vehicle control in assay buffer. Nonspecific binding was determined by […] NECA. Reaction was carried out at room temperature for 2 hours before filtering through 96-well GF/C filter plate pre-soaked in 50 mM Tris.HCl, pH7.4 containing 0.3% polyethylenimine. Plates were then washed 5 times with cold 50 mM Tris.HCl, pH7.4, dried and sealed at the bottom. Microscintillation fluid 30 μL was added to each well and the top sealed. Plates were counted on Packard Topcount for [^3H]. Data was analyzed in Microsoft Excel and GraphPad Prism programs. (Varani, K.; Gessi, S.; Dalpiaz, A.; Borea, P. A. British Journal of Pharmacology, 1996, 117, 1693)

Row | Compound | Ki [1] | Ki [2] | Ki [3]
1 | Nc1nc(-c2ccc(C(F)F)o2)nc2sc(Cc3ncccc3F)cc12 [Example 24, 2-(5-Difluoromethyl-furan-2-yl)-6-(3-fluoro-pyridin-2-ylmethyl)-thieno[2,3-d]pyrimidin-4-ylamine] | 6.21 nM | 92.6 nM | 
2 | Nc1nc(-c2ccc(C(F)F)o2)nc2sc(Cc3ncccc3Br)cc12 [Example 33, 6-(3-Bromo-pyridin-2-ylmethyl)-2-(5-difluoromethyl-furan-2-yl)-thieno[2,3-d]pyrimidin-4-ylamine] | 2.18 nM | 21.2 nM | 
3 | CC(O)(c1ccccn1)c1cc2c(N)nc(-c3ccc(C(F)F)o3)nc2s1 (stereo not shown) [Example 36, 1-[4-Amino-2-(5-difluoromethyl-furan-2-yl)-thieno[2,3-d]pyrimidin-6-yl]-1-pyridin-2-yl-ethanol] | 36 nM | 267 nM | 
4 | CC(O)(c1cc2c(N)nc(-c3ccc(C(F)F)o3)nc2s1)c1ncccc1F (stereo not shown) [Example 30, 1-[4-Amino-2-(5-difluoromethyl-furan-2-yl)-thieno[2,3-d]pyrimidin-6-yl]-1-(3-fluoro-pyridin-2-yl)-ethanol] | 11.4 nM | 403 nM | 16.3 nM
5 | Nc1nc(-c2ccc(C(F)F)o2)nc2sc(C(O)c3ncccc3O)cc12 (stereo not shown) [Example 34, 2-{[4-Amino-2-(5-difluoromethyl-furan-2-yl)-thieno[2,3-d]pyrimidin-6-yl]-hydroxy-methyl}-pyridin-3-ol] | 4.29 nM | 111 nM | 
6 | Nc1nc(-c2ccc(C(F)F)o2)nc2sc(C(O)c3ccccn3)cc12 (stereo not shown) [Example 31, [4-Amino-2-(5-difluoromethyl-furan-2-yl)-thieno[2,3-d]pyrimidin-6-yl]-pyridin-2-yl-methanol] | 4.82 nM | 46.9 nM | 
7 | Nc1nc(-c2ccc(C3CC3)o2)nc2sc(Cc3cccnc3)cc12 [Example 19, 2-(5-Cyclopropyl-furan-2-yl)-6-pyridin-3-ylmethyl-thieno[2,3-d]pyrimidin-4-ylamine] | 409 nM | 579 nM | 
8 | Nc1nc(-c2ccc(C(F)F)o2)nc2sc(C(O)c3ncccc3Br)cc12 (stereo not shown) [Example 32, [4-Amino-2-(5-difluoromethyl-furan-2-yl)-thieno[2,3-d]pyrimidin-6-yl]-(3-bromo-pyridin-2-yl)-methanol] | 1.62 nM | 23.5 nM | 
9 | Nc1nc(-c2ccc(C(F)F)o2)nc2sc(Cc3ccccn3)cc12 [Example 35, 2-(5-Difluoromethyl-furan-2-yl)-6-pyridin-2-ylmethyl-thieno[2,3-d]pyrimidin-4-ylamine] | 4.73 nM | 61.9 nM | 
10 | COc1cccnc1C(O)c1cc2c(N)nc(-c3ccc(C(F)F)o3)nc2s1 (stereo not shown) [Example 29, [4-Amino-2-(5-difluoromethyl-furan-2-yl)-thieno[2,3-d]pyrimidin-6-yl]-(3-methoxy-pyridin-2-yl)-methanol] | 2.39 nM | 24.9 nM | 
11 | 6-(6-Chloro-pyridin-3-ylmethyl)-2-(5-methyl-furan-2-yl)-thieno[2,3-d]pyrimidin-4-ylamine [Example 1] | 126 nM | 1590 nM | 
12 | Nc1nc(-c2ccc(C3CC3)o2)nc2sc(Cc3ccccn3)cc12 [Example 20, hydrochloride] | 130 nM | 337 nM | 
13 | Cc1csc(-c2nc(N)c3cc(Cc4ccccn4)sc3n2)n1 [Example 17, 2-(4-Methyl-thiazol-2-yl)-6-pyridin-2-ylmethyl-thieno[2,3-d]pyrimidin-4-ylamine] | 7.09 nM | 100 nM | 
14 | COc1cccnc1Cc1cc2c(N)nc(-c3ccc(C(F)F)o3)nc2s1 [Example 37, 2-(5-Difluoromethyl-furan-2-yl)-6-(3-methoxy-pyridin-2-ylmethyl)-thieno[2,3-d]pyrimidin-4-ylamine] | 2.28 nM | 32.6 nM | 
15 | Nc1nc(-c2ncco2)nc2sc(Cc3ccccn3)cc12 [Example 3, 2-Oxazol-2-yl-6-pyridin-2-ylmethyl-thieno[2,3-d]pyrimidin-4-ylamine hydrochloride] | 6.68 nM | 353 nM | 
16 | Nc1nc(-c2ccc(C(F)F)o2)nc2sc(C(=O)c3ncccc3F)cc12 [Example 25, [4-Amino-2-(5-difluoromethyl-furan-2-yl)-thieno[2,3-d]pyrimidin-6-yl]-(3-fluoro-pyridin-2-yl)-methanone] | 24.9 nM | 838 nM | 
17 | Cc1ccc(-c2nc(N)c3cc(Cc4ccccn4)sc3n2)o1 [Example 16, 2-(5-Methyl-furan-2-yl)-6-pyridin-2-ylmethyl-thieno[2,3-d]pyrimidin-4-ylamine] | 1.18 nM | 29.9 nM | 
18 | Nc1nc(-c2ncco2)nc2sc(Cc3cccnc3)cc12 [Example 18, 2-Oxazol-2-yl-6-pyridin-3-ylmethyl-thieno[2,3-d]pyrimidin-4-ylamine] | 30 nM | 489 nM | 
19 | Nc1nc(-c2ccc(C(F)F)o2)nc2sc(C(O)c3ncccc3F)cc12 (stereo not shown) [Example 23, [4-Amino-2-(5-difluoromethyl-furan-2-yl)-thieno[2,3-d]pyrimidin-6-yl]-(3-fluoro-pyridin-2-yl)-methanol] | 3.77 nM | 59.5 nM | 
20 | N#Cc1cccc(-c2nc(N)c3cc(Cc4cccnc4)sc3n2)n1 [Example 21, 6-(4-Amino-6-pyridin-3-ylmethyl-thieno[2,3-d]pyrimidin-2-yl)-pyridine-2-carbonitrile] | 5.25 nM | 28.2 nM | 
21 | Nc1nc(-c2cnco2)nc2sc(Cc3ccccn3)cc12 [Example 15, 2-Oxazol-5-yl-6-pyridin-2-ylmethyl-thieno[2,3-d]pyrimidin-4-ylamine] | 9.66 nM | 172 nM | 
